How the values were obtained:
Yeast #1 = experiment: Solvent compatibility with yeast corn mash fermentation, Yeast #1; conditions: Yeast #1, corn mash
Procedure: (§1) Dialkylsulfoxides and alkyl pyrrolidones, where the alkyl groups are independently C1 to C4, are particularly preferred. Dimethylsulfoxide (DMSO) and N-Methyl-2-Pyrrolidone (M-Pyrol or NMP) compatibility with yeast corn mash fermentations were evaluated with two yeasts (Yeast#1 and Yeast#2) commercially used in the fuel ethanol industry. Concentrations of 0 to 1200 ppm of either solvent were added at the beginning of dry-milled corn-mash fermentations along with either yeast.
(§2) Sterile saccharified 26% wt. %/v corn mash was prepared using substantially the same procedure described in Example 2. To each of 6 pre-sterilized Celstir™ fermentors (Wheaton Instruments, Millville, N.J.), 500 g sterile mash was aseptically added. The fermentors were temperature controlled to 32° C. using circulating water baths (Haake D8;G, Berlin, Germany) to pump water through the jackets of the Celstir fermentors. Magnetic stirrers (IKA-Lavortechnik, Staufen, Germany) were used to mix the fermentors at approximately 200 RPM. […] Then, to each fermentator was added 1) 1 ml of 0.2 μm filter-sterilized Urea stock solution (8 mM urea in fermentors); 2) 1 ml filter sterilized aqueous DMSO (Gaylord Chemical, CAS#67-68-5) or aqueous M-Pyrol (ISP, CAS#872-50-) solutions; and 3) 1.027 g Yeast#1 or Yeast#2 commercial active dry yeasts in 18 ml sterile water.
Samples (22 ml) were taken at 0, 6, 12, 24, 36, and 48 h and placed on ice to prevent growth. An 11 ml aliquot of each sample was serially diluted in 0.1% w/v sterile peptone water, and microbiologically plated onto MRS agar plates in duplicate. All plates were incubated for 48 h at 30° C. in an anaerobic CO2 incubation chamber, and manually enumerated for viable Lactobacilli. The remaining 11 ml aliquot of each sample was centrifuged (10K RPM, 4° C., 20 minutes) in a Sorvall RC-5C centrifuge. The liquid supernatant was then passed through a 0.2 μm membrane filter to remove any particulates and frozen for future analysis. Lactic acid, glycerol, ethanol, acetic acid, and glucose concentrations were determined by HPLC analysis. The samples were thawed and diluted to the required extent with Milli-Q water. Aliquots of the diluted samples (100 μl) were each mixed with an equal volume of 2% w/v boric acid (internal standard), and injected into a Biorad HPX-87H Aminex™ column equilibrated at 40° C. The eluent was 5 mM sulfuric acid flowing at a rate of 0.7 ml/min. The components were detected by a differential refractometer (Model 4210, Waters Chromatographic Division, Milford, Mass.) and the subsequent data processed by the supplied Waters Millenium32 software. All fermentations were performed in duplicate.

Yeast #2 = experiment: Solvent compatibility with yeast corn mash fermentation, Yeast #2
Procedure: as §1, §2
Samples (22 ml) were taken at 0, 6, 12, 24, 36, and 48 h and placed on ice to prevent growth. An 11 ml aliquot of each sample was serially diluted in 0.1% w/v sterile peptone water, and microbiologically plated onto MRS agar plates in duplicate. All plates were incubated for 48 h at 30° C. in an anaerobic CO2 incubation chamber, and manually enumerated for viable Lactobacilli. […] Lactic acid, glycerol, ethanol, acetic acid, and glucose concentrations were determined by HPLC analysis. […] The components were detected by a differential refractometer (Model 4210, Waters Chromatographic Division, Milford, Mass.) and the subsequent data processed by the supplied Waters Millenium32 software. […]

humans = conditions: cited from earlier work

For `C[S+](C)[O-]` [DMSO, Dimethylsulfoxide], the “Ethanol production (inhibition)” value (Yeast #1; 0 to 1200 ppm solvent) was “did not inhibit ethanol production”, the “Yeast viability and stress (glycerol)” value (Yeast #1; 1000 ppm solvent, 48 hours of exposure) was “does not appear to affect the viability of Yeast #1 or stress Yeast #1” and the “Yeast performance (viability, glycerol, ethanol)” value (Yeast #2; Yeast #2, corn mash, 0 to 1200 ppm solvent) was “no adverse effect on yeast performance”.

With `CN1CCCC1=O` [NMP, N-Methyl-2-Pyrrolidone] the Ethanol production (Yeast #1; 1000 ppm solvent (control 8.1%)) was 7.8%, the Yeast viability (Yeast #1; solvent concentrations above 400 ppm) was “slight decline in yeast viability” and the Ethanol production (Yeast #2; Yeast #2, corn mash, 1000 ppm solvent, 48 hours (control 10%)) was 9.1%. The Ethanol concentration trend (Yeast #2; Yeast #2, solvent concentrations >400 ppm) was “consistent trend towards lower concentrations of ethanol”.

In the case of `CCCCOC(=O)C(C)O` (stereo not drawn) [n-butyl lactate], the “Toxic concentration in air” value (humans; humans, in air) is listed as “about 4 ppm” and the Toxicity classification (humans; intraperitoneal route) is listed as “classified as a poison by intraperitoneal route”.
